Legend:
[1] = mouse, in vivo
[2] = test system: C57bl/6 mice exposed to Cl2, Br2 or COCl2; conditions: mouse, in vivo
[3] = test system: oral NR activity; design: species or system mice; conditions: mouse, in vivo
[4] = test system: tongue and lung microbiome; design: species or system mice; conditions: mouse, in vivo
[5] = design: species or system mice; conditions: mouse, in vivo
[6] = test system: C57bl/6 mice exposed to Br2; conditions: mouse, in vivo
[7] = test system: C57bl/6 mice exposed to Br2; conditions: mouse, in vivo; remark: listed apart in the source
[8] = test system: P. Aeruginosa; design: species or system mice; conditions: mouse, in vivo
[9] = test system: oral NR activity; design: species or system mice; conditions: mouse, in vivo; remark: listed apart in the source

## O=[N+]([O-])O [nitrate]
[1]
  Plasma nitrite and cGMP: will temporally increase plasma nitrite and cGMP
  Plasma nitrite levels: increase

## [H]/N=C(\N/C(=N/[H])NCCCCCCNC(=N)NC(=N)Nc1ccc(Cl)cc1)Nc1ccc(Cl)cc1 [chlorhexidine]
[2]
  Increase in severity of Br2 and COCl2 lung injury: 1.5-2.5 fold
  Increase in severity of Cl2 lung injury: close to significant effects
  Lung injury, chlorhexidine alone: no effect on lung injury
[3]
  Inhibition of NR activity: ~70%
[4]
  Decrease in abundance of 7 bacteria on the tongue: > 50%
  Decrease of the one altered bacterial species in the lung microbiome: ~30%
[5]
  Decrease of plasma nitrite: 50%

## O=NO [nitrite, sodium nitrite]
[6]
  Decrease of BAL neutrophil: 50%
[7]
  Survival over 10 days (Kaplan Meier): improved survival early
[8]
  Protection against ALI and P. aeruginosa infection: protects against ALI and P. aeruginosa infection
  Susceptibility to P. aeruginosa infection (bacterial burden in lung homogenates): decreases susceptibility to P. aeruginosa infection

## bromine [Br2]
[9]
  Bacterial number (CFU): not different
  NR activity normalized per bacterial number: significantly inhibited

B1: hemopexin: a heme-scavenger; scavenges free heme (protein, UniProt P02790 24-462, looked up)
Hemopexin: TPLPPTSAHGNVAEGETKPDPDVTERCSDGWSFDATTLDDNGTMLFFKGEFVWKSHKWDRELISERWKNFPSPVDAAFRQGHNSVFLIKGDKVWVYPPEKKEKGYPKLLQDEFPGIPSPLDAAVECHRGECQAEGVLFFQGDREWFWDLATGTMKERSWPAVGNCSSALRWLGRYYCFQGNQFLRFDPVRGEVPPRYPRDVRDYFMPCPGRGHGHRNGTGHGNSTHHGPEYMRCSPHLVLSALTSDNHGATYAFSGTHYWRLDTSRDGWHSWPIAHQWPQGPSAVDAAFSWEEKLYLVQGTQVYVFLTKGGYTLVSGYPKRLEKEVGTPHGIILDSVDAAFICPGSSRLHIMAGRRLWWLDLKSGAQATWTELPWPHEKVDGALCMEKSLGPNSCSANGPGLYLIHGPNLYCYSDVEKLNAAKALPQPQNVTSLLGCTH
[7]
  Survival over 10 days (Kaplan Meier): improved survival
[8]
  Protection against ALI and P. aeruginosa infection: protects against ALI and P. aeruginosa infection

— patent publication US20220305051A1 (priority 2019, published 2022)
